Reference: the NIST ThermoML archive (doi:10.1016/j.jct.2013.09.007)
Numbers after ± are expanded uncertainties.

Key:
[1] = 101.33 kPa, Liquid, Vibrating tube method
[2] = activity coefficient (dimensionless); of the first substance listed, at infinite dilution; xn = mol fraction of the nth substance listed; details: 101 kPa, Liquid, Chromatography, x1 = 0

CCCC[n+]1cccc(C)c1.N#C[N-]C#N [1-butyl-3-methylpyridinium dicyanamide]
mass density ([1]; 308.15 K): 1040.66 ± 2.1 kg/m3
mass density ([1]; 318.15 K): 1034.63 ± 2.1 kg/m3
mass density ([1]; 328.15 K): 1028.66 ± 2.1 kg/m3
mass density ([1]; 338.15 K): 1022.75 ± 2.1 kg/m3
mass density ([1]; 348.15 K): 1016.77 ± 2 kg/m3
mass density ([1]; 358.15 K): 1010.8 ± 2 kg/m3

CCCCCCC [heptane] + CCCC[n+]1cccc(C)c1.N#C[N-]C#N
activity coefficient ([2]; 308.15 K): 82.8 ± 5.7
activity coefficient ([2]; 318.15 K): 75.7 ± 5.2
activity coefficient ([2]; 328.15 K): 69.9 ± 4.8
activity coefficient ([2]; 338.15 K): 64.3 ± 4.4
activity coefficient ([2]; 348.15 K): 59.4 ± 4.1
activity coefficient ([2]; 358.15 K): 55.4 ± 3.8
activity coefficient ([2]; 368.15 K): 51.7 ± 3.5

C=CCCCC [hex-1-ene] + CCCC[n+]1cccc(C)c1.N#C[N-]C#N
activity coefficient ([2]; 308.15 K): 22.4 ± 1.5
activity coefficient ([2]; 318.15 K): 21.4 ± 1.5
activity coefficient ([2]; 328.15 K): 20.4 ± 1.4
activity coefficient ([2]; 338.15 K): 19.5 ± 1.3
activity coefficient ([2]; 348.15 K): 18.7 ± 1.3
activity coefficient ([2]; 358.15 K): 17.8 ± 1.2
activity coefficient ([2]; 368.15 K): 17.1 ± 1.2

CCCCCC [hexane] + CCCC[n+]1cccc(C)c1.N#C[N-]C#N
activity coefficient ([2]; 308.15 K): 56.1 ± 3.8
activity coefficient ([2]; 318.15 K): 51.7 ± 3.5
activity coefficient ([2]; 328.15 K): 47.8 ± 3.3
activity coefficient ([2]; 338.15 K): 44.3 ± 3
activity coefficient ([2]; 348.15 K): 41.3 ± 2.8
activity coefficient ([2]; 358.15 K): 38.6 ± 2.6
activity coefficient ([2]; 368.15 K): 36 ± 2.5

CC1CCCCC1 [methylcyclohexane] + CCCC[n+]1cccc(C)c1.N#C[N-]C#N
activity coefficient ([2]; 308.15 K): 34.1 ± 2.3
activity coefficient ([2]; 318.15 K): 31.5 ± 2.2
activity coefficient ([2]; 328.15 K): 29.3 ± 2
activity coefficient ([2]; 338.15 K): 27.3 ± 1.9
activity coefficient ([2]; 348.15 K): 25.5 ± 1.7
activity coefficient ([2]; 358.15 K): 23.9 ± 1.6
activity coefficient ([2]; 368.15 K): 22.6 ± 1.5

CCCCCCCCC [nonane] + CCCC[n+]1cccc(C)c1.N#C[N-]C#N
activity coefficient ([2]; 308.15 K): 182 ± 13
activity coefficient ([2]; 318.15 K): 162 ± 11
activity coefficient ([2]; 328.15 K): 148 ± 10
activity coefficient ([2]; 338.15 K): 134 ± 9
activity coefficient ([2]; 348.15 K): 122 ± 8
activity coefficient ([2]; 358.15 K): 112 ± 8
activity coefficient ([2]; 368.15 K): 103 ± 7

C=CCCCCCC [oct-1-ene] + CCCC[n+]1cccc(C)c1.N#C[N-]C#N
activity coefficient ([2]; 308.15 K): 49.7 ± 3.4
activity coefficient ([2]; 318.15 K): 46.7 ± 3.2
activity coefficient ([2]; 328.15 K): 44 ± 3
activity coefficient ([2]; 338.15 K): 41.8 ± 2.9
activity coefficient ([2]; 348.15 K): 39.5 ± 2.7
activity coefficient ([2]; 358.15 K): 37.6 ± 2.6
activity coefficient ([2]; 368.15 K): 35.7 ± 2.4

CCCCCCCC [octane] + CCCC[n+]1cccc(C)c1.N#C[N-]C#N
activity coefficient ([2]; 308.15 K): 123 ± 8
activity coefficient ([2]; 318.15 K): 111 ± 8
activity coefficient ([2]; 328.15 K): 101 ± 7
activity coefficient ([2]; 338.15 K): 92.7 ± 6.4
activity coefficient ([2]; 348.15 K): 85.2 ± 5.8
activity coefficient ([2]; 358.15 K): 79 ± 5.4
activity coefficient ([2]; 368.15 K): 73.3 ± 5

CCCC(C)=O [pentan-2-one] + CCCC[n+]1cccc(C)c1.N#C[N-]C#N
activity coefficient ([2]; 328.15 K): 1.81 ± 0.12
activity coefficient ([2]; 338.15 K): 1.84 ± 0.12
activity coefficient ([2]; 348.15 K): 1.89 ± 0.13
activity coefficient ([2]; 358.15 K): 1.93 ± 0.13
activity coefficient ([2]; 368.15 K): 1.96 ± 0.13

CCC(=O)CC [pentan-3-one] + CCCC[n+]1cccc(C)c1.N#C[N-]C#N
activity coefficient ([2]; 328.15 K): 1.84 ± 0.12
activity coefficient ([2]; 338.15 K): 1.89 ± 0.13
activity coefficient ([2]; 348.15 K): 1.94 ± 0.13
activity coefficient ([2]; 358.15 K): 1.97 ± 0.13
activity coefficient ([2]; 368.15 K): 2.01 ± 0.14

CCCO [propan-1-ol] + CCCC[n+]1cccc(C)c1.N#C[N-]C#N
activity coefficient ([2]; 338.15 K): 0.678 ± 0.046
activity coefficient ([2]; 348.15 K): 0.663 ± 0.045
activity coefficient ([2]; 358.15 K): 0.65 ± 0.044
activity coefficient ([2]; 368.15 K): 0.638 ± 0.044

c1ccncc1 [pyridine] + CCCC[n+]1cccc(C)c1.N#C[N-]C#N
activity coefficient ([2]; 338.15 K): 0.718 ± 0.048
activity coefficient ([2]; 348.15 K): 0.731 ± 0.048
activity coefficient ([2]; 358.15 K): 0.754 ± 0.05
activity coefficient ([2]; 368.15 K): 0.768 ± 0.05

C=Cc1ccccc1 [styrene] + CCCC[n+]1cccc(C)c1.N#C[N-]C#N
activity coefficient ([2]; 328.15 K): 1.39 ± 0.09
activity coefficient ([2]; 338.15 K): 1.44 ± 0.09
activity coefficient ([2]; 348.15 K): 1.49 ± 0.1
activity coefficient ([2]; 358.15 K): 1.54 ± 0.1
activity coefficient ([2]; 368.15 K): 1.59 ± 0.11

C1CCOC1 [tetrahydrofuran] + CCCC[n+]1cccc(C)c1.N#C[N-]C#N
activity coefficient ([2]; 308.15 K): 1.38 ± 0.09
activity coefficient ([2]; 318.15 K): 1.4 ± 0.09
activity coefficient ([2]; 328.15 K): 1.43 ± 0.09
activity coefficient ([2]; 338.15 K): 1.45 ± 0.1
activity coefficient ([2]; 348.15 K): 1.47 ± 0.1
activity coefficient ([2]; 358.15 K): 1.5 ± 0.1
activity coefficient ([2]; 368.15 K): 1.53 ± 0.1

c1ccsc1 [thiophene] + CCCC[n+]1cccc(C)c1.N#C[N-]C#N
activity coefficient ([2]; 308.15 K): 0.822 ± 0.053
activity coefficient ([2]; 318.15 K): 0.844 ± 0.054
activity coefficient ([2]; 328.15 K): 0.868 ± 0.055
activity coefficient ([2]; 338.15 K): 0.89 ± 0.057
activity coefficient ([2]; 348.15 K): 0.911 ± 0.058
activity coefficient ([2]; 358.15 K): 0.937 ± 0.059
activity coefficient ([2]; 368.15 K): 0.955 ± 0.06

Cc1ccccc1 [toluene] + CCCC[n+]1cccc(C)c1.N#C[N-]C#N
activity coefficient ([2]; 328.15 K): 2.01 ± 0.14
activity coefficient ([2]; 338.15 K): 2.05 ± 0.14
activity coefficient ([2]; 348.15 K): 2.1 ± 0.14
activity coefficient ([2]; 358.15 K): 2.15 ± 0.15
activity coefficient ([2]; 368.15 K): 2.2 ± 0.15

O [water] + CCCC[n+]1cccc(C)c1.N#C[N-]C#N
activity coefficient ([2]; 338.15 K): 0.294 ± 0.031
activity coefficient ([2]; 348.15 K): 0.302 ± 0.031
activity coefficient ([2]; 358.15 K): 0.307 ± 0.031
activity coefficient ([2]; 368.15 K): 0.314 ± 0.031
